Results from US12583826B2, “[(1,5-diphenyl-1H-1,2,4-triazol-3-yl)oxy]acetic acid derivatives and salts thereof, crop protection compositions comprising them, methods for producing them and use thereof as safeners” (Bayer Aktiengesellschaft, priority 2019, dated 2026).

What was measured:
[1] = test system: summer wheat (TRZAS; cv. Triso); assay: Absolute action: reduction of damage by mesosulfuron-methyl on summer wheat, greenhouse post-emergence; type: in vivo; details: for Absolute reduction in herbicide damage (damage without safener minus damage with safener): mesosulfuron-methyl 20 g/ha; for Herbicide damage with compound of the formula (I): then mesosulfuron-methyl 20 g/ha, visual 0-100% scale, 14-21 days after application
Protocol: (§1) 2.1 Absolute Action of Selected Compounds of the Invention Using the Example of Reduction of Damage by Mesosulfuron-Methyl on Summer Wheat (TRZAS) The seeds of the crop plants to be treated are laid out in sandy loam in wood fiber or plastic pots (diameter ˜4 cm), covered with soil and grow in a greenhouse under good conditions for germination and growth. The trial plants were treated at the early leaf stage (BBCH10—BBCH12). In the course of this, the inventive compounds of the general formula (I) formulated in the form of wettable powders (WP) were sprayed onto the above-ground parts of the plants as an aqueous suspension with a water application rate corresponding to 800 l/ha with addition of wetting agent (e.g. 0.2% agrotin) in the specified dose. This was followed by the application of the herbicide. For this purpose, mesosulfuron-methyl, formulated in the form of water-dispersible granules (WG), was sprayed onto the above-ground parts of the plants in the form of an aqueous dispersion with a water application rate corresponding to 800 l/ha with addition of wetting agent (e.g. 0.2% agrotin) in a dose of 20 g/ha. The dose of the herbicide was chosen here such that it causes visually apparent damage (min. 30%, max. 75%) compared to untreated crop plants at the evaluation time on a control group of crop plants without safener treatment that were included in the same trial. After application, the plants were cultivated under good growth conditions in a greenhouse. The damage was visually assessed 14-21 days after application. The damage effect was assessed visually on a scale of 0-100% by comparison with untreated control plants, and averaged over 2-3 repeats per treatment. Examples: • 0%=no noticeable effect compared to the untreated plant • 20%=the treated plant population has 20% damage compared to the untreated control population (e.g. growth height, leaf damage, etc.) • 100%=treated plants completely damaged/killed.

[2] = test system: summer barley (HORVS; cv. Montoya); assay: Absolute action: reduction of damage by mesosulfuron-methyl on summer barley, greenhouse post-emergence; type: in vivo; details: for Absolute reduction in damage (difference): mesosulfuron-methyl 20 g/ha, damage without minus with safener; for Herbicide damage with compound of the formula (I) (%): then mesosulfuron-methyl 20 g/ha, visual 0-100% scale, 14-21 days after application
Protocol: as §1, with “2.2 Absolute Action” for “2.1 Absolute Action”, “on Summer Barley (HORVS) The seeds” for “on Summer Wheat (TRZAS) The seeds”, “treated are aid out in” for “treated are laid out in”, “soil and grown in a” for “soil and grow in a”, “leaf stage (BBCE10-BBCH12). In the” for “leaf stage (BBCH10—BBCH12). In the”, “control population (e.g.: growth height,” for “control population (e.g. growth height,”

Compound	Absolute reduction in herbicide damage (damage without safener minus damage with safener) ([1]; safener 125 g a.i./ha)	Herbicide damage with compound of the formula (I) ([1]; safener 125 g a.i./ha)	Absolute reduction in herbicide damage (damage without safener minus damage with safener) ([1]; safener 500 g a.i./ha)	Herbicide damage with compound of the formula (I) ([1]; safener 500 g a.i./ha)	Absolute reduction in damage (difference) ([2]; safener 125 g a.i./ha)	Herbicide damage with compound of the formula (I) (%) ([2]; safener 125 g a.i./ha)	Absolute reduction in damage (difference) ([2]; safener 500 g a.i./ha)	Herbicide damage with compound of the formula (I) (%) ([2]; safener 500 g a.i./ha)	Absolute reduction in herbicide damage (damage without safener minus damage with safener) ([1]; safener 1000 g/ha)	Herbicide damage with compound of the formula (I) ([1]; safener 1000 g/ha)	Absolute reduction in damage (difference) ([2]; safener 250 g a.i./ha)	Herbicide damage with compound of the formula (I) (%) ([2]; safener 250 g a.i./ha)	Absolute reduction in damage (difference) ([2]; safener 1000 g a.i./ha)	Herbicide damage with compound of the formula (I) (%) ([2]; safener 1000 g a.i./ha)	Absolute reduction in herbicide damage (damage without safener minus damage with safener) ([1]; safener 250 g/ha)	Herbicide damage with compound of the formula (I) ([1]; safener 250 g/ha)
COC(=O)COc1nc(-c2ccc(Cl)cc2Cl)n(-c2ccc(Cl)cc2F)n1 [I.43-49, Methyl {[1-(4-chloro-2-fluorophenyl)-5-(2,4-dichlorophenyl)-1H-1,2,4-triazol-3-yl]oxy}acetate]	36%	27%	40%	23%	30%	33%	33%	30%								
COC(=O)COc1nc(-c2ccc(Cl)cc2Cl)n(-c2ccc(F)cc2F)n1 [I.43-38]	30%	33%	33%	30%	26%	37%										
CCOC(=O)COc1nc(-c2cc(F)cc(F)c2)n(-c2ccc(F)cc2F)n1 [I.53-38]									20%	23%	30%	30%	40%	20%		
CCOC(=O)COc1nc(-c2ccc(Cl)cc2Cl)n(-c2ccc(Cl)cc2F)n1 [I.44-49]	43%	10%	46%	7%	30%	30%										
O=C(O)COc1nc(-c2ccc(Cl)cc2F)n(-c2ccc(Cl)cc2Cl)n1 [I.48-32]	30%	30%	37%	23%	40%	20%	50%	10%								
COC(=O)COc1nc(-c2ccc(Cl)cc2F)n(-c2ccc(Cl)cc2F)n1 [I.46-49]	43%	10%			40%	20%	43%	17%								
CCOC(=O)COc1nc(-c2ccccc2F)n(-c2ccc(Cl)cc2F)n1 [I.5-49]	54%	13%			50%	23%	56%	17%								
O=C(O)COc1nc(-c2ccccc2F)n(-c2ccc(Cl)cc2F)n1 [I.6-49]											20%	40%	30%	30%	30%	27%
O=C(O)COc1nc(-c2cc(F)cc(F)c2)n(-c2ccc(F)cc2)n1 [I.54-4]											23%	37%			23%	20%
COC(=O)COc1nc(-c2ccc(Cl)cc2F)n(-c2ccc(F)cc2F)n1 [I.46-38]	33%	30%			40%	23%	43%	20%								
CCOC(=O)COc1nc(-c2cc(F)cc(F)c2)n(-c2ccc(F)cc2)n1 [I.53-4]									20%	23%	27%	33%				
COC(=O)COc1nc(-c2ccc(Cl)cc2F)n(-c2ccc(Cl)cc2Cl)n1 [I.46-32]	43%	10%	46%	7%	27%	33%	33%	27%								
COC(=O)COc1nc(-c2ccc(Cl)cc2F)n(-c2ccccc2F)n1 [I.46-2]	46%	7%			23%	37%	33%	27%								
O=C(O)COc1nc(-c2ccc(Cl)cc2F)n(-c2ccc(Cl)cc2F)n1 [I.48-49]	37%	23%	40%	20%	40%	20%	60%	0%								
